The target of the test is T1, G9a (Homo sapiens, UniProt Q96KQ7).
T1 sequence (Q96KQ7 1-1210): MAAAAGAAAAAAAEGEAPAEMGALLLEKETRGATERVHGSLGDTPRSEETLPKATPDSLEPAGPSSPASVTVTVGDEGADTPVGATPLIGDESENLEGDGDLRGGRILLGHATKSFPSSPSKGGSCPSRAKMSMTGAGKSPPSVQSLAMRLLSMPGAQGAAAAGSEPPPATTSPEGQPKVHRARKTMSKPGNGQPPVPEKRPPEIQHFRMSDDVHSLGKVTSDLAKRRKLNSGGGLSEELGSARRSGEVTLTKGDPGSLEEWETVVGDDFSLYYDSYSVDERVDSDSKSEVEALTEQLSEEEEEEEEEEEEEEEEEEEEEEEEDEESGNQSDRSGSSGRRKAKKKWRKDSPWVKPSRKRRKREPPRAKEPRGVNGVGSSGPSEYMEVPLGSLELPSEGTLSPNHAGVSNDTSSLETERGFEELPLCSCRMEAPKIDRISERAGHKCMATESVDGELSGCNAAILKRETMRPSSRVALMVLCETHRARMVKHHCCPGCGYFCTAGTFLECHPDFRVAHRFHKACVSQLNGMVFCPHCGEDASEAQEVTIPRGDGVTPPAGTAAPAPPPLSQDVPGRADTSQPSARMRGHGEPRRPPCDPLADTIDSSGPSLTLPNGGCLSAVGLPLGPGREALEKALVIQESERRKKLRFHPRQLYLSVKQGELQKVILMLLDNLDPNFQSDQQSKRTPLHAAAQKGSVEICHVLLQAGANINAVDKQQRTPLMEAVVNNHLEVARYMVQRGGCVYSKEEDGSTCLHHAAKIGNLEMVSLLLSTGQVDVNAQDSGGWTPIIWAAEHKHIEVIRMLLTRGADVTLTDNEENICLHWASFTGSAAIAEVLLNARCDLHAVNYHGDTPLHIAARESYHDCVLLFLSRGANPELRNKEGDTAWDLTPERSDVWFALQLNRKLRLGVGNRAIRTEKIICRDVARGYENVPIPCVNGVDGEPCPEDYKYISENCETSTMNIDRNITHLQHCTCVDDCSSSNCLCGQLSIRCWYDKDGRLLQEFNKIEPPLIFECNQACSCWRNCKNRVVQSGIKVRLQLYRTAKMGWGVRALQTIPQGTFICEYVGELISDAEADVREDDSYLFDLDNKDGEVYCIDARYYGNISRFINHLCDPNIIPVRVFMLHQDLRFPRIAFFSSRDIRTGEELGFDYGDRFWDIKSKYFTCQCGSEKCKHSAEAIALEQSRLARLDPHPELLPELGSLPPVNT
Put plainly: G9a AlphaLISA enzymatic activity assay. It is filed as biochemical. The following applies: 0.15 nM G9a, 10 uM S-adenosyl-methionine, 100 nM biotinylated histone 3 peptide (1-21), 1 h room temperature. From the text: The G9a AlphaLISA assay was used to detect the methyl modifications of a biotinylated histone H3 peptide by the compounds. These modifications are done by the histone methyl transferase activity of the G9a enzyme. The assay consists of reading a chemiluminescent signal at 615 nm; this signal is generated by a laser excitation at 680 nm that transfers a reactive singlet oxygen between the donor beads and acceptor beads. Donor beads are streptavidin conjugated and bind to the biotin on the peptide. Acceptor beads are conjugated with an antibody that recognizes the specific G9a methyl mark on the peptide. If there is a methyl mark on the peptide, the acceptor beads will bind to the peptide. Upon binding, the acceptor beads will be in close proximity (<200 nm) of the donor beads and when the donor beads are excited, the transfer of the oxygen can occur and a strong signal will be generated. If there is no methyl mark, the interaction between beads will not occur and signal will be at background levels.
For the assay, the following buffer was used to set up reactions: 50 mM Tris-HCl pH9, 50 mM NaCl, 0.01% Tween-20 and 1 mM DTT (added fresh prior to starting the reactions). The assay is set up by adding a final concentration of 0.15 nM G9a, 10 uM S-adenosyl-methionine and, 100 nM biotinylated histone 3 peptide (1-21). The reaction is incubated at room temperature for 1 h, and subsequently quenched by the addition of the acceptor beads (anti-H3k9me2 AlphaLISA acceptor beads, PerkinElmer #AL117) at a final concentration of 20 ug/mL. The acceptor beads are incubated for 1 h. After 1 h, the donor beads are added at a final concentration of 20 ug/mL (Alpha Streptavidin donor beads, PerkinElmer #6760002). Donor beads are incubated for 0.5 h. Both donor and acceptor beads are resuspended in AlphaLISA 5× Epigenetics Buffer 1 Kit (PerkinElmer #AL008) prior to addition to the reaction. All manipulations and incubations with the donor and acceptor beads are done in subdued light. Signal is detected in an EnVision plate reader in Alpha mode (See ACS Med Chem Lett. 2014 Jan. 2; 5(2):205-9)
Percent inhibition was calculated for each compound dilution and the concentration that produced 50% inhibition was calculated. This value is presented as the IC50.

Each structure is given as a SMILES string. Counter-ions that a name gives are not always drawn.

The term IC50 denotes the concentration at which inhibition is half-maximal. Turning to `CCOCCc1nccc2[nH]c3cc(OCCCN(C)C)c(OC)cc3c12` [Compound 57, (3-{[1-(2-ethoxyethyl)-8-methoxy-5H-pyrido[4,3-b]indol-7-yl]oxy}propyl)dimethylamine hydrochloride], the IC50 worked out at 61 nM.

Regarding `COc1cc2c(cc1OCCCN1CCCC1)[nH]c1ccnc(-n3ccnc3)c12` [Compound 76, 1-{8-methoxy-7-[3-(pyrrolidin-1-yl)propoxy]-5H-pyrido[4,3-b]indol-1-yl}-1H-imidazole trifluoroacetate], the IC50 was found to be 960 nM. As for `COc1cc2c(cc1OCCN1CCCC1)[nH]c1ccncc12` [Compound 71, 1-[2-({8-methoxy-5H-pyrido[4,3-b]indol-7-yl}oxy)ethyl]pyrrolidine hydrochloride], the figure is 52 nM; as for `CCc1nccc2[nH]c3cc(OCCCN(C)C)c(OC)cc3c12` [Compound 91, [3-({1-ethyl-8-methoxy-5H-pyrido[4,3-b]indol-7-yl}oxy)propyl]dimethylamine hydrochloride], 6.7 nM; as for `COc1cc2c(cc1OCCCN1CCCC1)[nH]c1cc(O)ncc12` [Compound 80, 8-methoxy-7-(3-(pyrrolidin-1-yl)propoxy)-5H-pyrido[4,3-b]indol-3-ol formate], more than 10000 nM. As for `C#Cc1nccc2[nH]c3cc(OCCCN(C)C)c(OC)cc3c12` [Compound 59, [3-({1-ethynyl-8-methoxy-5H-pyrido[4,3-b]indol-7-yl}oxy)propyl]dimethylamine hydrochloride], the figure is 160 nM; as for `COc1cc2c(cc1OCCCN1CCCC1)[nH]c1ccnc(-n3cccn3)c12` [Compound 77, 1-[8-methoxy-7-[3-(pyrrolidin-1-yl)propoxy]-5H-pyrido[4,3-b]indol-1-yl]-1H-pyrazole trifluoroacetate], 2500 nM. As for `CCN(C)CCCOc1cc2[nH]c3ccncc3c2cc1OC` [Compound 45, ethyl[3-({8-methoxy-5H-pyrido[4,3-b]indol-7-yl}oxy)propyl]methylamine hydrochloride], the figure is 56 nM; as for `COc1cc2c(cc1OCCCN1CC3CC(C3)C1)[nH]c1ccncc12` [Compound 98, 3-[3-({8-methoxy-5H-pyrido[4,3-b]indol-7-yl}oxy)propyl]-3-azabicyclo[3.1.1]heptane hydrochloride], 2800 nM. `COc1cc2c(cc1OCCCN1CCCC1)[nH]c1cc(C)ncc12` [Compound 99, 1-[3-({8-methoxy-3-methyl-5H-pyrido[4,3-b]indol-7-yl}oxy)propyl]pyrrolidine hydrochloride] gave an IC50 of 16 nM.

With `COc1cc2c(cc1OCCCN(C)C)[nH]c1ccnc(C(C)C)c12` [Compound 67, (3-{[8-methoxy-1-(propan-2-yl)-5H-pyrido[4,3-b]indol-7-yl]oxy}propyl)dimethylamine hydrochloride], the IC50 was found to be 9.5 nM. As for `COc1cc2c(cc1OCCCN(C)C)[nH]c1ccnc(N(C)C)c12` [Compound 93, 7-[3-(dimethylamino)propoxy)-8-methoxy-N,N-dimethyl-5H-pyrido[4,3-b]indol-1-amine hydrochloride], the figure is 61 nM; as for `COc1cc2c(cc1OCCCN1CCCC1)[nH]c1ccnc(-c3ccccn3)c12` [Compound 25, 8-methoxy-1-(pyridin-2-yl)-7-(3-(pyrrolidin-1-yl)propoxy)-5H-pyrido[4,3-b]indole], 140 nM; as for `CCCc1nccc2[nH]c3cc(OCCCN4CCCC4)c(OC)cc3c12` [Compound 21, 1-[3-({8-methoxy-1-propyl-5H-pyrido[4,3-b]indol-7-yl}oxy)-propyl]pyrrolidine], 3.3 nM. As for `COc1cc2c(cc1OCCCN1CCCC1)[nH]c1ccnc(OC3CCOCC3)c12` [Compound 73, 1-(3-{[8-methoxy-1-(oxan-4-yloxy)-5H-pyrido[4,3-b]indol-7-yl]oxy}propyl)pyrrolidine trifluoroacetate], the figure is 960 nM; as for `COc1cc2c(cc1OCCCN1CCCC1)[nH]c1ccnc(-c3cncs3)c12` [Compound 78, 5-{8-methoxy-7-[3-(pyrrolidin-1-yl)propoxy]-5H-pyrido[4,3-b]indol-1-yl}-1,3-thiazole trifluoroacetate], 260 nM; as for `COc1cc2c(cc1OCCCN1CCCC1)[nH]c1ccnc(N3CCCC3)c12` [Compound 15, 1-{8-methoxy-7-[3-(pyrrolidin-1-yl)propoxy]-5H-pyrido[4,3-b]indol-1-yl}pyrrolidine], 3.3 nM. Consider `COc1cc2c(cc1OCCCN1CCCC1)[nH]c1ccnc(OC(C)C)c12` [Compound 75, 1-(3-{[8-methoxy-1-(propan-2-yloxy)-5H-pyrido[4,3-b]indol-7-yl]oxy}propyl)pyrrolidine trifluoroacetate], for which the midpoint of inhibition, the IC50, lay at 1000 nM.

With `COc1cc2c(cc1OCCCN1CCC1)[nH]c1ccncc12` [Compound 72, 1-[3-({8-methoxy-5H-pyrido[4,3-b]indol-7-yl}oxy)propyl]azetidine hydrochloride], half-maximal inhibition (IC50) was put at 9.1 nM.

`COc1cc2c(cc1OCCCN1CCCC1)[nH]c1ccnc(C3=CCOCC3)c12` [Compound 64, 1-(3-{[1-(3,6-dihydro-2H-pyran-4-yl)-8-methoxy-5H-pyrido[4,3-b]indol-7-yl]oxy}propyl)pyrrolidine hydrochloride] registered an IC50 of 12 nM.

`COc1cc2c(cc1OCCCN1CCCC1)[nH]c1cccnc12` [Compound 27, 1-[3-({8-methoxy-5H-pyrido[3,2-b]indol-7-yl}oxy)propyl]pyrrolidine hydrochloride] yielded an IC50 of 150 nM. Compared with the last compound, the IC50 is about 12-fold higher. As for `COc1cc2c(cc1OCCCN1CCCC1)[nH]c1ccncc12` [Compound 31, 1-[3-({8-methoxy-5H-pyrido[4,3-b]indol-7-yl}oxy)propyl]pyrrolidine hydrochloride], the figure is 3.6 nM; as for `COc1cc2c(cc1OCCCN1CCCC1)[nH]c1ccnc(C3CC3)c12` [Compound 12, 1-[3-({1-cyclopropyl-8-methoxy-5H-pyrido[4,3-b]indol-7-yl}oxy)propyl]pyrrolidine], 1 to 3 nM; as for `COc1cc2c(cc1OCCCN1CCCC1)[nH]c1ccnc(N3CCCC3)c12` [Compound 39, 1-{8-methoxy-7-[3-(pyrrolidin-1-yl)propoxy]-5H-pyrido[4,3-b]indol-1-yl}pyrrolidine], 5.7 nM.

In the case of `COc1cc2c(cc1OCCCN(C)C)[nH]c1ccnc(C3CCCC3)c12` [Compound 56, [3-({1-cyclopentyl-8-methoxy-5H-pyrido[4,3-b]indol-7-yl}oxy)propyl]dimethylamine hydrochloride], the IC50 is 15 nM. As for `COc1cc2c(cc1OCCCN1CCCC1)[nH]c1ccnc(N3CCOCC3)c12` [Compound 17, 4-{8-methoxy-7-[3-(pyrrolidin-1-yl)propoxy]-5H-pyrido[4,3-b]indol-1-yl}morpholine], the figure is 370 nM.

(Values after patent publication US11111243B2, “Azaindole compounds as histone methyltransferase inhibitors” (GLOBAL BLOOD THERAPEUTICS, INC., priority 2017, dated 2021).)
